Measured values: patent US20110100079A1, “METHOD FOR IMPARTING STRESS TOLERANCE TO PLANT” (priority 2007, published 2011)

Assays:
Format in all cases: in vivo
[1] = test system: “Momotaro” tomato; experiment: Standard test: standard extent of imparting plant salt stress tolerance; settings: 100 ppm sprayed onto leaves 10 ml/specimen, NaCl 3510 ppm in tap water, fresh weight after 2 weeks vs salt-stressed untreated control plot 1
Protocol: Standard Test (I) Plant Preparation A 50-cell tray is filled with potting soil (fertilizer components: N:P:K=0.4:1.9:0.6 (g)/kg potting soil); and seeds of a “Momotaro” tomato (Takii Co., Ltd.) are sowed, thinly covered with potting soil, and sufficiently irrigated to allow the seeds to sprout. When the leaves in the 2-leaf stage are fully unfolded, the soil on the tomato roots is washed away with running water, and a test is performed. For the potting soil, Kureha gardening soil manufactured by Kureha Corporation may be used. (II) Test Condition Setting The environmental conditions are controlled such that the temperature is 23° C., the relative humidity is 50%, the illuminance is 5000 Lux, and the daily light-dark cycle includes a 16-hour light period and an 8-hour dark period. Such environmental conditions can be obtained by, for example, controlling the temperature in a room or a climate chamber where the temperature and the relative humidity can be controlled, and controlling illuminance by a fluorescent light or the like. […] (III) Treatment with Plant Stress Tolerance Imparting Composition […] A known surfactant or a like material that barely affects the plant may be used in the preparation of an aqueous dispersion. Test plot: An aqueous solution or an aqueous dispersion of a test compound (sugar derivative-type surfactant) (concentration: 100 ppm) is sprayed onto the leaves in an amount of 10 ml per tomato specimen. […] NaCl is added to a solution culture medium (creating a salt stress), but no test compound (plant stress tolerance imparting composition) is given to the tomato. Control plot 2: No NaCl is added to a solution culture medium (creating no salt stress), and no test compound (plant stress tolerance imparting composition) is given to the tomato. (IV) Calculation of Standard Extent of Imparting Plant Salt Stress Tolerance (%) […] The plant stress level (standard plant salt stress level) attained in the above-described standard test is about 130%. In this regard, the standard plant salt stress level can be calculated according to Formula (ii)′ below.

[2] = test system: “Momotaro” tomato; experiment: Example 2 temperature stress tolerance imparting test (tomato); settings: 32° C., leaf, 100 ppm, 2 weeks
Protocol: Other cultivation conditions were the same as the conditions of the temperature stress test. […] (2) Solution culture medium: […] Method of Temperature Stress Tolerance Imparting Test The temperature in a climatic chamber was controlled so as to be 10, 15, or 32° C. The environmental conditions were controlled so as to have an illuminance by a fluorescent light of 5000 Lux and a daily light-dark cycle of a 16-hour light period and a 8-hour dark period. In this test, a temperature of 23° C. at which the optimum growth was observed was regarded as a reference temperature (temperature stress-free test condition), and a stress was imposed by applying a temperature higher or lower than the reference temperature. A tomato as prepared above was planted in a 250 ml polyethylene bottle filled with the solution culture medium (½ Otsuka A formulation). A treatment solution as presented in Table 1 was sprayed onto the leaves or applied to the underground portion. […] Ten specimens were prepared for each of the test plot and the control plots, and a plant stress level and an extent of imparting plant stress tolerance were calculated according to Formula (ii) and (iii) above using as a fresh plant body weight the average of the fresh plant body weights of each specimen 2 weeks after the beginning of the test.

[3] = test system: “Momotaro” tomato; experiment: Example 3 drying stress tolerance imparting test (tomato); settings: pF 2.3, leaf, 100 ppm once a week, 3 weeks
Protocol: Other cultivation conditions were as with the conditions of the drying stress test. Drying stress conditions: soil pF value: 2.3, 2.5, or 2.9, cultivation temperature: 23° C., relative humidity: 50%, illuminance: 5000 Lux (fluorescent light), light/dark cycle: 16 hours/8 hours (2) Cultivation period: 3 weeks (3) Soil: Kureha gardening soil manufactured by Kureha Corporation (fertilizer components: N:P:K=0.4:1.9:0.6 g/kg soil) (4) Plant preparation: A 50-cell tray was filled with Kureha gardening soil manufactured by Kureha Corporation (fertilizer components: N:P:K=0.4:1.9:0.6 g/kg soil), and seeds of a “Momotaro” tomato were sowed, thinly covered with Kureha gardening soil, and sufficiently watered to allow the seeds to sprout. When the leaves in the 2-leaf stage fully unfolded, the soil on the tomato roots was carefully washed away with running water, and a test was performed. (5) The chemicals used and the amount of a treatment solution applied were as in Example 1. (6) Amount of treatment solution applied: 10 ml/specimen for leaf spraying, 50 ml/specimen for fertigation Method of Drying Stress Tolerance Imparting Test Five tomato specimens as prepared above were planted in a 60-cm planter placed on a plant culture rack in an air-conditioned room. […] From immediately after planting the tomatoes, a treatment solution of Table 1 was sprayed onto the leaves or applied to the underground portions once a week. […] Five specimens (per planter) were prepared for each of the test plot and the control plots, plant bodies were collected 3 weeks after the beginning of the test such that the roots were not cut, the soil was washed away with running water, the fresh plant body-weights were measured, and a plant stress level and an extent of imparting plant stress tolerance were calculated according to Formula (ii) and (iii) above using the average of the weights.

[4] = test system: “Momotaro” tomato; experiment: Example 4 salt stress tolerance imparting test (tomato, tap water + NaCl); settings: tap water + NaCl 3510 ppm, leaf, 100 ppm, 2 weeks
Source text: NaCl concentration 3510 ppm (water potential by NaCl: […]) (4) Cultivation period: two weeks (5) Plant preparation: A 50-cell tray was filled with Kureha gardening soil manufactured by Kureha Corporation (fertilizer components: N:P:K=0.4:1.9:0.6 g/kg soil), and seeds of a “Momotaro” tomato were sowed, thinly covered with Kureha gardening soil, and sufficiently irrigated to allow the seeds to sprout. When the leaves in the 2-leaf stage fully unfolded, the soil on the tomato roots was carefully washed away with running water, and a test was performed. (6) The chemicals used and the concentration of a treatment solution were as in Example 1 (7) Amount of application: 10 ml/specimen for leaf spraying, 50 ml/specimen for fertigation Method of Salt Stress Tolerance Imparting Test […]

[5] = test system: Potato Variety: Toyoshiro; experiment: Example 5 drying stress tolerance imparting test (potato variety Toyoshiro); settings: pF 2.3, leaf, 100 ppm once a week, 3 weeks
Protocol: Other cultivation conditions were the same as the conditions of the drying stress test. Drying stress conditions: soil pF value: 2.3, 2.5, or 2.9, cultivation temperature: 23° C., relative humidity: 50%, illuminance: 5000 Lux (fluorescent light), light/dark cycle: 16 hours/8 hours (2) Cultivation Period: 3 weeks (3) Soil: Kureha gardening soil manufactured by Kureha Corporation (fertilizer components: N:P:K=0.4:1.9:0.6 g/kg soil) (4) The chemicals used and the amount of a treatment solution applied were the same as in Example 3. Method of Drying Stress Tolerance Imparting Test A planter (60 cm) was filled with Kureha gardening soil manufactured by Kureha Corporation (fertilizer components: N:P:K=0.4:1.9:0.6 g/kg soil) in a glass greenhouse, tubers of a “Thyoshiro” potato were cut in half: and 5 pieces thereof were planted in the planter, thinly covered with Kureha gardening soil, and sufficiently watered to allow the tubers to sprout. When the leaves in the 3-leaf stage fully unfolded, the Solarium tuberosu was relocated on a plant culture rack in an air-conditioned room, and a test was initiated. […] From immediately after the beginning of the test, a treatment solution of Table 1 was sprayed onto the leaves or applied to the underground portions once a week. […] Five specimens (per planter) were prepared for each of the test plot and the control plots, plant bodies were collected 3 weeks after the beginning of the test such that the roots were not cut, the soil was washed away with running water, the fresh plant body weights were measured, and a plant stress level and an extent of imparting plant stress tolerance were calculated according to Formula (ii) and (iii) above using the average of the weights.

Sucrose fatty acid ester (C18, HLB = 5) [Product of present invention 17]
Standard extent of imparting plant salt stress tolerance [1]: 113%
Extent of imparting plant stress tolerance [2]: 111%
Extent of imparting plant stress tolerance [3]: 112%
Extent of imparting plant stress tolerance [4]: 113%
Extent of imparting plant stress tolerance [5]: 114%
